Reference: the NIST ThermoML archive (doi:10.1021/je300953u)
Numbers after ± are expanded uncertainties.

Assay: mn = molality of the nth substance listed, in mol/kg
Details: 101 kPa, Liquid, Vibrating tube method

mass density (298.15 K, m1 = 0.025): 998.38 ± 0.29 kg/m3
mass density (298.15 K, m1 = 0.055): 999.96 ± 0.29 kg/m3
mass density (308.15 K, m1 = 0.025): 995.33 ± 0.29 kg/m3
mass density (308.15 K, m1 = 0.055): 996.89 ± 0.29 kg/m3
SMILES: CCn1cc[n+](C)c1.[Br-] [1-ethyl-3-methylimidazolium bromide] + O
